Test results reported in patent publication US20250326771A1, “PIPERAZINE DERIVATIVES USEFUL IN HIV THERAPY” (VIIV HEALTHCARE COMPANY, priority 2022, published 2025).
Read-outs that look alike come from different tables or passages of the source.

Legend:
[1] = tested on: Jurkat HIV-luciferase clones; experiment: Jurkat latency reversal assay; assay type: cell-based; conditions: Homo sapiens, 48 h; Jurkat latency reversal assay potency; read-out: Jurkat pEC50 (converted)
Procedure, shortened: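 Latency reversal was scored as provirus-driven luciferase luminescence in pooled Jurkat HIV-luc clones after 48 h compound exposure at 37° C. EC50 and maximal activation over vehicle were fitted with a four-parameter logistic model.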

cIAP1-BIR3 = cIAP1-BIR3 (Homo sapiens (Human), UniProt Q13490); experiment: BIR binding assay (FRET competition), cIAP1 BIR3; conditions: for cIAP1 BIR3 vs BIR2 separation window: fold separation (FS) for cIAP1
Chain of cIAP1-BIR3 (Q13490 253-363): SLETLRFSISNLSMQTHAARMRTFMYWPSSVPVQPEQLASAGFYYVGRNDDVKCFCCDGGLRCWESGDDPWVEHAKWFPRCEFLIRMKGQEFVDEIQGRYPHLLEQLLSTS
Procedure, shortened: (§1)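 Each domain is run separately at its own level: 50 nM cIAP1-BIR3, 100 nM XIAP-BIR3, 325 nM for cIAP1-BIR2 or cIAP2-BIR2. Probe is a 200 nM fluorescent SMAC peptide, and the value is IC50 from FRET competition.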

cIAP1-BIR2 = cIAP1-BIR2 (Homo sapiens (Human), UniProt Q13490); experiment: BIR binding assay (FRET competition), cIAP1 BIR2
Chain of cIAP1-BIR2 (Q13490 173-257): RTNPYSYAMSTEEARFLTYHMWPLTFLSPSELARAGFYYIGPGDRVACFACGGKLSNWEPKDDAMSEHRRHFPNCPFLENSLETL
Procedure, shortened: as §1

cIAP2-BIR3 = cIAP2-BIR3 (Homo sapiens (Human), UniProt Q13489); experiment: BIR binding assay (FRET competition), cIAP2 BIR3; conditions: for cIAP2 BIR3 vs BIR2 separation window: fold separation (FS) for cIAP2
Chain of cIAP2-BIR3 (Q13489 238-349): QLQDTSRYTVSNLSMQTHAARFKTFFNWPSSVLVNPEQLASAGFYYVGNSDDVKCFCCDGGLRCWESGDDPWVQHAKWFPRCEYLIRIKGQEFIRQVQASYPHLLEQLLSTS

cIAP2-BIR2 = cIAP2-BIR2 (Homo sapiens (Human), UniProt Q13489); experiment: BIR binding assay (FRET competition), cIAP2 BIR2
Chain of cIAP2-BIR2 (Q13489 158-242): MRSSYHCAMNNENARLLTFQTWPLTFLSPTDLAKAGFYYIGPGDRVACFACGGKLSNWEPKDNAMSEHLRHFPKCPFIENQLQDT
Procedure, shortened: as §1

XIAP-BIR3 = XIAP-BIR3 (Homo sapiens (Human), UniProt P98170); experiment: BIR binding assay (FRET competition), XIAP BIR3; conditions: for XIAP BIR3 vs BIR2 separation window: fold separation (FS) for XIAP
Chain of XIAP-BIR3 (P98170 241-356): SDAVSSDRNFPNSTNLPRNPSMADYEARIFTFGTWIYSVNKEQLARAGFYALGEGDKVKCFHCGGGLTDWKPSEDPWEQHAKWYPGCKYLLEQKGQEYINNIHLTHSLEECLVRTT
Procedure, shortened: as §1

XIAP-BIR2 = XIAP-BIR2 (Homo sapiens (Human), UniProt P98170); experiment: BIR binding assay (FRET competition), XIAP BIR2; conditions: read-out: XIAP BIR2 (pIC50) (converted)
Chain of XIAP-BIR2 (P98170 124-240): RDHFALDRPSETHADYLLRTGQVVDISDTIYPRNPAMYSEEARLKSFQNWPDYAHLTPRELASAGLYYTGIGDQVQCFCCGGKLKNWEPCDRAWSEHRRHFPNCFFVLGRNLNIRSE
Procedure, shortened: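 Compounds in a 15-point, 3-fold series competed with an AlexaFluor647 SMAC peptide (AVPIAQKSE, 200 nM) for 200 nM His-tagged XIAP-BIR2 over 60 min in pH 7.4 HEPES/CHAPS/DTT buffer. Eu-W1024 (2 nM) was then added for 30 min. IC50 and pIC50 were derived from the 615 nm/665 nm emission ratio by variable-slope fit.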

Row | SMILES | EC50 [1] [nM] | IC50 (cIAP1-BIR3) [nM] | cIAP1 BIR3 vs BIR2 separation window (cIAP1-BIR3) | IC50 (cIAP1-BIR2) [µM] | IC50 (cIAP2-BIR3) [nM] | cIAP2 BIR3 vs BIR2 separation window (cIAP2-BIR3) | IC50 (cIAP2-BIR2) [µM] | IC50 (XIAP-BIR3) [nM] | XIAP BIR3 vs BIR2 separation window (XIAP-BIR3) | IC50 (XIAP-BIR2; FRET competition binding) [µM] | IC50 (XIAP-BIR2; FRET competition) [µM]
1 | C[C@@H]1CN(CC(=O)N2CC(C)(C)c3[nH]c(=O)c(Cc4ccc(F)cc4)cc32)[C@@H](CN2CCC(CNC(=O)c3ccc(C(=O)NCC4CCN(C[C@H]5CN[C@H](C)CN5CC(=O)N5CC(C)(C)c6[nH]c(=O)c(Cc7ccc(F)cc7)cc65)CC4)cc3)CC2)CN1 [Example 101, N^1,N^4-bis((1-(((2R,5R)-1-(2-(6-(4-fluorobenzyl)-3,3-dimethyl-5-oxo-2,3,4,5-tetrahydro-1H-pyrrolo[3,2-b]pyridin-1-yl)-2-oxoethyl)-5-methylpiperazin-2-yl)methyl)piperidin-4-yl)methyl)terephthalamide] | 63.1 to 316 | 1.38 to 7.94 | +++ (10,000>FS>1,000) | 3.16 to 10 | 1.38 to 7.94 | ++++ (FS>10,000) | 3.16 to 10 | 7.94 to 15.8 | ++++ (FS>10,000) | 10 to 51.3 | 
2 | C[C@@H]1CN(CC(=O)N2CC(C)(C)c3[nH]c(=O)c(Cc4ccc(F)cc4)cc32)[C@@H](CN2CCO[C@H](C(=O)NCCCN3CCN(CCCNC(=O)[C@@H]4CN(C[C@H]5CN[C@H](C)CN5CC(=O)N5CC(C)(C)c6[nH]c(=O)c(Cc7ccc(F)cc7)cc65)CCO4)CC3)C2)CN1 [Example 123, (2S,2'S)-N,N′-(piperazine-1,4-diylbis(propane-3,1-diyl))bis(4-(((2R,5R)-1-(2-(6-(4-fluorobenzyl)-3,3-dimethyl-5-oxo-2,3,4,5-tetrahydro-1H-pyrrolo[3,2-b]pyridin-1-yl)-2-oxoethyl)-5-methylpiperazin-2-yl)methyl)morpholine-2-carboxamide)] | 316 to 3310 | 7.94 to 15.8 | +++ (10,000>FS>1,000) | 3.16 to 10 | 7.94 to 15.8 | +++ (10,000>FS>1,000) | 3.16 to 10 | 7.94 to 15.8 | ++++ (FS>10,000) | 10 to 51.3 | 
3 | Cc1c(NC(=O)[C@@H]2CN(C[C@H]3CN[C@H](C)CN3CC(=O)N3CC(C)(C)c4[nH]c(=O)c(Cc5ccc(F)cc5)cc43)CCO2)cccc1NC(=O)[C@@H]1CN(C[C@H]2CN[C@H](C)CN2CC(=O)N2CC(C)(C)c3[nH]c(=O)c(Cc4ccc(F)cc4)cc32)CCO1 [Compound 141, (2S,2′S)-N,N′-(2-methyl-1,3-phenylene)bis(4-(((2R,5R)-1-(2-(6-(4-fluorobenzyl)-3,3-dimethyl-5-oxo-2,3,4,5-tetrahydro-1H-pyrrolo[3,2-b]pyridin-1-yl)-2-oxoethyl)-5-methylpiperazin-2-yl)methyl)morpholine-2-carboxamide)] | 12.6 to 63.1 | 7.94 to 15.8 | +++ (10,000>FS>1,000) | 1 to 3.16 | 7.94 to 15.8 | +++ (10,000>FS>1,000) | 1 to 3.16 | 15.8 to 31.6 | +++ (10,000>FS>1,000) |  | 10 to 51.3
4 | C[C@@H]1CN(CC(=O)N2CC(C)(C)c3[nH]c(=O)c(Cc4ccc(F)cc4)cc32)[C@@H](CN2CCC[C@@H](NC(=O)Cc3ccc(CC(=O)N[C@@H]4CCCN(C[C@H]5CN[C@H](C)CN5CC(=O)N5CC(C)(C)c6[nH]c(=O)c(Cc7ccc(F)cc7)cc65)C4)cc3)C2)CN1 [Example 48, 2,2′-(1,4-phenylene)bis(N-((R)-1-(((2R,5R)-1-(2-(6-(4-fluorobenzyl)-3,3-dimethyl-5-oxo-2,3,4,5-tetrahydro-1H-pyrrolo[3,2-b]pyridin-1-yl)-2-oxoethyl)-5-methylpiperazin-2-yl)methyl)piperidin-3-yl)acetamide)] | 316 to 3310 | 15.8 to 31.6 | +++ (10,000>FS>1,000) | 10 to 51.3 | 15.8 to 31.6 | ++++ (FS>10,000) | 10 to 51.3 | 15.8 to 31.6 | ++++ (FS>10,000) | 10 to 51.3 | 
5 | C[C@@H]1CN(CC(=O)N2CC(C)(C)c3[nH]c(=O)c(Cc4ccc(F)cc4)cc32)[C@@H](CN2CCC(CN(C)C(=O)Cc3ccc(CC(=O)N(C)CC4CCN(C[C@H]5CN[C@H](C)CN5CC(=O)N5CC(C)(C)c6[nH]c(=O)c(Cc7ccc(F)cc7)cc65)CC4)cc3)CC2)CN1 [Example 99, 2,2′-(1,4-phenylene)bis(N-((1-(((2R,5R)-1-(2-(6-(4-fluorobenzyl)-3,3-dimethyl-5-oxo-2,3,4,5-tetrahydro-1H-pyrrolo[3,2-b]pyridin-1-yl)-2-oxoethyl)-5-methylpiperazin-2-yl)methyl)piperidin-4-yl)methyl)-N-methylacetamide)] | 63.1 to 316 | 1.38 to 7.94 | +++ (10,000>FS>1,000) | 3.16 to 10 | 7.94 to 15.8 | +++ (10,000>FS>1,000) | 3.16 to 10 | 7.94 to 15.8 | ++++ (FS>10,000) | 10 to 51.3 | 
6 | C[C@@H]1CN(CC(=O)N2CC(C)(C)c3[nH]c(=O)c(Cc4ccc(F)cc4)cc32)[C@@H](CN2CCO[C@H](C(=O)N(C)CCCCCCN(C)C(=O)[C@@H]3CN(C[C@H]4CN[C@H](C)CN4CC(=O)N4CC(C)(C)c5[nH]c(=O)c(Cc6ccc(F)cc6)cc54)CCO3)C2)CN1 [Example 124, (2S,2'S)-N,N′-(hexane-1,6-diyl)bis(4-(((2R,5R)-1-(2-(6-(4-fluorobenzyl)-3,3-dimethyl-5-oxo-2,3,4,5-tetrahydro-1H-pyrrolo[3,2-b]pyridin-1-yl)-2-oxoethyl)-5-methylpiperazin-2-yl)methyl)-N-methylmorpholine-2-carboxamide)] | 12.6 to 63.1 | 7.94 to 15.8 | +++ (10,000>FS>1,000) | 1 to 3.16 | 7.94 to 15.8 | +++ (10,000>FS>1,000) | 1 to 3.16 | 7.94 to 15.8 | ++++ (FS>10,000) | 10 to 51.3 | 
7 | C[C@@H]1CN(CC(=O)N2CC(C)(C)c3[nH]c(=O)c(Cc4ccc(F)cc4)cc32)[C@@H](CN2CCN(C(=O)COCCOCCOCC(=O)N3CCN(C[C@H]4CN[C@H](C)CN4CC(=O)N4CC(C)(C)c5[nH]c(=O)c(Cc6ccc(F)cc6)cc54)[C@H](C)C3)C[C@H]2C)CN1 (stereo in doubt) [Example 6, 1,1′-(2,2′-((3R,3′R,6R,6′R)-(((2R,2′R)-(2,2′-((oxybis(ethane-2,1-diyl))bis(oxy))bis(acetyl))bis(2-methylpiperazine-4,1-diyl))bis(methylene))bis(3-methylpiperazine-6,1-diyl))bis(acetyl))bis(6-(4-fluorobenzyl)-3,3-dimethyl-1,2,3,4-tetrahydro-5H-pyrrolo[3,2-b]pyridin-5-one)] | 63.1 to 316 | 1.38 to 7.94 | +++ (10,000>FS>1,000) | 0.0224 to 1 | 1.38 to 7.94 | +++ (10,000>FS>1,000) | 0.0224 to 1 | 1.38 to 7.94 | ++++ (FS>10,000) | 10 to 51.3 | 
